Data set [1] addresses Voltage-gated inwardly rectifying potassium channel KCNH2 (Homo sapiens, UniProt Q12809). Nature of the data set: Inhibition of human ERG channel by Rb efflux assay.
In data set [2] the target is T1, C-X-C chemokine receptor type 3 (Homo sapiens, UniProt P49682).
T1 sequence (P49682 whole entry): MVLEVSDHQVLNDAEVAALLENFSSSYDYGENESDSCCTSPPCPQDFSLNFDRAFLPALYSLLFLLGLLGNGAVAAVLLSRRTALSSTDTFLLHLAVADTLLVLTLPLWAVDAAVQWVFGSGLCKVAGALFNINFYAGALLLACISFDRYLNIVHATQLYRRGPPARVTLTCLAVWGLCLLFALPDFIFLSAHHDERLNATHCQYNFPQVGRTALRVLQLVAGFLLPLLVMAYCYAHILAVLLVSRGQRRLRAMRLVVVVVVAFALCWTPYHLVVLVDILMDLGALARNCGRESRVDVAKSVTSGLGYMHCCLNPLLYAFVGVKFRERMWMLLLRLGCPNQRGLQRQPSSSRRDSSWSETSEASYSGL
The data set can be described thus: Binding affinity to human CXCR3 receptor.

Data set [3] has as its system Rattus norvegicus. The data set can be described thus: (§1) AUC in rat at 10 mg/kg, po. The format is ADME, organism-based, Plasma. Set-up: dose 10 mg/kg, route oral. Conditions: in vivo.
The subject of data set [4] is Rattus norvegicus. Nature of the data set: AUC in rat at 10 mg/kg, po after 6 hrs. The format is ADME, organism-based, Plasma. Further details: time < 6 hr, dose 10 mg/kg, route oral. The following applies: in vivo.
A short description of data set [5]: as §1. The format is ADME, organism-based, Plasma. Conditions: plasma. Further details: dose 10 mg/kg, route oral.

Sequence of Voltage-gated inwardly rectifying potassium channel KCNH2 (Q12809 whole entry): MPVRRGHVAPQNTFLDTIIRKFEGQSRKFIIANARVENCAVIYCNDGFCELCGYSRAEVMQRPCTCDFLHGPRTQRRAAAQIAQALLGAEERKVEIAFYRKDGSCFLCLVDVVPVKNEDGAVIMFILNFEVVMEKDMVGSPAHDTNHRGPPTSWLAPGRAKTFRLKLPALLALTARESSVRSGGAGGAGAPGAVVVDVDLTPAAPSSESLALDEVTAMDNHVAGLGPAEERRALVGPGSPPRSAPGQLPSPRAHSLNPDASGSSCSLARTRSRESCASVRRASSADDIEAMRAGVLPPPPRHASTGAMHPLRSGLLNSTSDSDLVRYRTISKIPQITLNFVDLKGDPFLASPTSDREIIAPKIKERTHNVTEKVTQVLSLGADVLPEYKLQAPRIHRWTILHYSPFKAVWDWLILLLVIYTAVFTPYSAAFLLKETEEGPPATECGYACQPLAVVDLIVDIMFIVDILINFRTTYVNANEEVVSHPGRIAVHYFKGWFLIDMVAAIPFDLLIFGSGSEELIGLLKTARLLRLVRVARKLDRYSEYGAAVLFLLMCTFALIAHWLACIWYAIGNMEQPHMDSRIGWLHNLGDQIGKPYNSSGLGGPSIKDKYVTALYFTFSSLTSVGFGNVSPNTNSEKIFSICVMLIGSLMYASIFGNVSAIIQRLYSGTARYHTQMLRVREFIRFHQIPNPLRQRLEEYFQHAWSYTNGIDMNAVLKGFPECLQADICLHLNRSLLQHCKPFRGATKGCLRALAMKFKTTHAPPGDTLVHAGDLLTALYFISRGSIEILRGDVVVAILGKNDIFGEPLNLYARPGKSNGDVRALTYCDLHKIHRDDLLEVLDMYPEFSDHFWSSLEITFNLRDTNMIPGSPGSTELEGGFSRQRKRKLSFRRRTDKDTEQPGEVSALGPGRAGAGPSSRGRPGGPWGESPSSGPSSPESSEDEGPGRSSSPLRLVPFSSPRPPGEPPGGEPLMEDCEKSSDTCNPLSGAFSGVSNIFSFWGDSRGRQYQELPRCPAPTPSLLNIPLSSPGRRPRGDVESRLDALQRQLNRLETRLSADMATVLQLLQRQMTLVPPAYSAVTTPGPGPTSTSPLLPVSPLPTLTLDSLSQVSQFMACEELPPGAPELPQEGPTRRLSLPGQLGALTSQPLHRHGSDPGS

`CC[C@H]1CN(c2nc(N)c(-c3nnc(C)o3)nc2Cl)CCN1C1CCN(C(=O)c2ccc(Cl)cc2)CC1`: in data set [1], the “inhibition (INH)” value amounted to 85%. For the same molecule, in data set [2], the concentration for half-maximal inhibition (IC50) – broadly, the point on the concentration scale where inhibition reaches its midpoint – was found to be 4.2 nM. In data set [3], the AUC stood at 3.9 uM.hr/ml.

Regarding `CC[C@H]1CN(c2ncc(-c3ncon3)cc2Cl)CCN1C1CCN(Cc2ccc(Cl)cc2F)CC1`, the IC50 in data set [2] came out at 286 nM.

As for `CCNc1nnc(-c2cnc(N3CCN(C4CCN(C(=O)c5ccc(Cl)nc5N)CC4)[C@@H](CC)C3)c(Cl)n2)o1`, the AUC in data set [4] is listed as 1.4 uM.hr/ml; in data set [3], 40.4 uM.hr/ml. The “inhibition (INH)” value in data set [1] turned out to be 14%. For the same molecule, the IC50 in data set [2] was determined as 0.8 nM.

For the molecule `CC[C@H]1CN(c2nc(N)c(-c3nnc(NC)o3)nc2Cl)CCN1C1CCN(C(=O)c2ccc(Cl)nc2N)CC1`, the “inhibition (INH)” value in data set [1] turned out to be 39%. The IC50 in data set [2] was 1.6 nM. In data set [3], the AUC was found to be 5.5 uM.hr/ml.

Consider `CC[C@H]1CN(c2ncc(-c3nnc(NC)o3)nc2C)[C@H](C)CN1C1CCN(C(=O)c2ccc(Cl)cc2)CC1`, for which the AUC in data set [4] was determined as 2.4 uM.hr/ml; in data set [3] it was 18 uM.hr/ml. In data set [1], the “inhibition (INH)” value is on record as 17%. This molecule also showed an IC50 in data set [2] of 6.2 nM.

On to `CCNc1nnc(-c2cnc(N3CCN(C4CCN(C(=O)c5ccc(Cl)cc5)CC4)[C@@H](CC)C3)c(C)n2)o1`, for which the figures for the AUC in data set [4] and in data set [3] were 0.9 uM.hr/ml and 16.4 uM.hr/ml, respectively. For the same molecule, in data set [1], the “inhibition (INH)” value is 40%. The IC50 in data set [2] was 1.2 nM.

Turning to `CC[C@H]1CN(c2ncc(-c3ncc[nH]3)nc2C)[C@H](C)CN1C1CCN(C(=O)c2ccc(Cl)cc2)CC1`, the AUC in data set [4] turned out to be 0.8 uM.hr/ml; in data set [3], 7.3 uM.hr/ml. Also, in data set [1], the “inhibition (INH)” value stood at 36%. The molecule also returned an IC50 in data set [2] of 1.6 nM.

Regarding `CCNc1nnc(-c2cnc(N3C[C@H](CC)N(C4CCN(C(=O)c5ccc(Cl)nc5N)CC4)C[C@H]3C)c(C)n2)o1`, the AUC in data set [4] came to 0.8 uM.hr/ml; in data set [3] it was 15.3 uM.hr/ml. In data set [1], the “inhibition (INH)” value came out at 4%. In addition, the IC50 in data set [2] turned out to be 3.4 nM.

`CC[C@H]1CN(c2nc(N)c(-c3nnc(NCCO)o3)nc2Cl)CCN1C1CCN(C(=O)c2ccc(Cl)nc2N)CC1`: the “inhibition (INH)” value in data set [1] came to 0%. Besides, in data set [2], the concentration for half-maximal inhibition (IC50) came to 3.9 nM. For the same molecule, the AUC in data set [3] is 0.1 uM.hr/ml.

As to `CC[C@H]1CN(c2ncc(-c3ncc[nH]3)nc2C)[C@H](C)CN1C1CCN(C(=O)c2ccc(Cl)nc2N)CC1`, the AUC in data set [4] was found to be 0.3 uM.hr/ml; in data set [3], 6.7 uM.hr/ml. Besides, in data set [1], the “inhibition (INH)” value worked out at 22%. This molecule came in with an IC50 in data set [2] of 1.8 nM.

Take `CC[C@H]1CN(c2ncc(C#N)cc2Cl)CCN1C1CCN(Cc2ccc(Cl)cc2F)CC1`: in data set [2], the half-maximal inhibitory concentration (IC50) was determined as 50.5 nM.

In the case of `CC[C@H]1CN(c2nc(N)c(-c3nnc(C4CC4)o3)nc2Cl)CCN1C1CCN(C(=O)c2ccc(Cl)nc2N)CC1`, the “inhibition (INH)” value in data set [1] is 72%. In data set [2], this molecule displayed a half-inhibitory concentration (IC50) of 6 nM.

Consider `CCNc1nnc(-c2nc(Cl)c(N3CCN(C4CCN(C(=O)c5ccc(Cl)nc5N)CC4)[C@@H](CC)C3)nc2N)o1`, for which the “inhibition (INH)” value in data set [1] is on record as 26%. In data set [2], this molecule had an IC50 of 1 nM. The molecule also showed an AUC in data set [3] of 16.6 uM.hr/ml.

For `CC[C@H]1CN(c2nc(N)c(-c3nnc(NS(C)(=O)=O)o3)nc2Cl)CCN1C1CCN(C(=O)c2ccc(Cl)nc2N)CC1`, the “inhibition (INH)” value in data set [1] is 5%. The IC50 in data set [2] amounted to 2300 nM.

`CC[C@H]1CN(c2ncc(-c3ncc[nH]3)cc2Cl)CCN1C1CCN(Cc2ccc(Cl)cc2F)CC1`: the IC50 in data set [2] amounted to 0.3 nM.

`CC[C@H]1CN(c2ncc(-c3nnc[nH]3)nc2C)[C@H](C)CN1C1CCN(C(=O)c2ccc(Cl)cc2)CC1`: the AUC in data set [4] stood at 4.9 uM.hr/ml; in data set [3], 26.5 uM.hr/ml. For the same molecule, the “inhibition (INH)” value in data set [1] is 4%. Besides, in data set [2], the IC50 was found to be 33.8 nM.

For `CC[C@H]1CN(c2nc(N)c(-c3nnc(N)o3)nc2Cl)CCN1C1CCN(C(=O)c2ccc(Cl)nc2N)CC1`, the “inhibition (INH)” value in data set [1] was found to be 7%. The same molecule showed an IC50 in data set [2] of 1.3 nM. The AUC in data set [3] is on record as 0.3 uM.hr/ml.

`CC[C@H]1CN(c2nc(N)c(-c3nnco3)nc2Cl)CCN1C1CCN(Cc2ccc(Cl)cc2)CC1` had an IC50 in data set [2] of 5.2 nM.

On to `CC[C@H]1CN(c2nc(N)c(-c3nnc(CO)o3)nc2Cl)CCN1C1CCN(C(=O)c2ccc(Cl)nc2N)CC1`, for which the “inhibition (INH)” value in data set [1] is given as 16%. In addition, the IC50 in data set [2] stood at 2.2 nM. The molecule further yielded an AUC in data set [3] of 2.5 uM.hr/ml.

Consider `CC[C@H]1CN(c2nc(N)c(-c3nnc(N(C)C)o3)nc2Cl)CCN1C1CCN(C(=O)c2ccc(Cl)nc2N)CC1`, for which the “inhibition (INH)” value in data set [1] amounted to 67%. In data set [2], this molecule registered an IC50 of 23.6 nM.

For `CC[C@H]1CN(c2ncc(-c3noc(=O)[nH]3)cc2Cl)CCN1C1CCN(Cc2ccc(Cl)cc2F)CC1`, the IC50 in data set [2] worked out at 760 nM.

In the case of `CCNc1nnc(-c2cnc(N3C[C@H](CC)N(C4CCN(C(=O)c5ccc(Cl)cc5)CC4)C[C@H]3C)c(C(F)(F)F)n2)o1`, the AUC in data set [4] is 2.3 uM.hr/ml; in data set [3] it was 9.9 uM.hr/ml. Besides, the “inhibition (INH)” value in data set [1] was determined as 27%. In data set [2], this molecule returned an IC50 of 1.8 nM.

As for `CC[C@H]1CN(c2nc(N)c(-c3nnc(C)o3)nc2Cl)CCN1C1CCN(Cc2ccc(Cl)cc2)CC1`, the IC50 in data set [2] was determined as 0.4 nM. In data set [3], this molecule came in with an AUC of 1 uM.hr/ml.

With `CC[C@H]1CN(c2ncc(-c3nnco3)cc2Cl)CCN1C1CCN(Cc2ccc(Cl)cc2F)CC1`, the IC50 in data set [2] stood at 1.4 nM. Further, in data set [5], the AUC is 1.8 µM·h.

Regarding `CC[C@H]1CN(c2nc(N)c(C(N)=O)nc2Cl)CCN1C1CCN(Cc2ccc(Cl)cc2)CC1`, the “inhibition (INH)” value in data set [1] is listed as over 90%. In data set [3], this molecule gave an AUC of 5.1 uM.hr/ml.

On to `CC[C@H]1CN(c2ncc(C3=NCCN3)cc2Cl)CCN1C1CCN(Cc2ccc(Cl)cc2F)CC1`, for which the IC50 in data set [2] is 1.3 nM.

Regarding `CC[C@H]1CN(c2ncc(-c3nnc[nH]3)cc2Cl)CCN1C1CCN(Cc2ccc(Cl)cc2F)CC1`, the IC50 in data set [2] came out at 6.8 nM.

As to `CCNc1nnc(-c2cnc(N3C[C@H](CC)N(C4CCN(C(=O)c5ccc(Cl)nc5N)CC4)C[C@H]3C)c(C(F)(F)F)n2)o1`, the AUC in data set [4] is recorded as 5.1 uM.hr/ml; in data set [3] it was 30.2 uM.hr/ml. Also, in data set [1], the “inhibition (INH)” value came out at 22%. The same molecule came in with a concentration for half-maximal inhibition (IC50) in data set [2] of 3.6 nM.

Consider `CC[C@H]1CN(c2ncc(-c3nnc(N)o3)nc2C)[C@H](C)CN1C1CCN(C(=O)c2ccc(Cl)cc2)CC1`, for which the AUC in data set [4] is 1 uM.hr/ml; in data set [3], 12.7 uM.hr/ml. In data set [1], the “inhibition (INH)” value was found to be 0%. Besides, in data set [2], the IC50 was 6.4 nM.

In the case of `CC[C@H]1CN(c2ncc(-c3nnn[nH]3)cc2Cl)CCN1C1CCN(Cc2ccc(Cl)cc2F)CC1`, the IC50 in data set [2] came to 1380 nM.

Take `CCNc1nnc(-c2cnc(N3CCN(C4CCN(C(=O)c5ccc(Cl)nc5N)CC4)[C@@H](CC)C3)c(C(F)(F)F)n2)o1`: the results for the AUC in data set [4] and in data set [3] were 4.2 uM.hr/ml and 25.3 uM.hr/ml, respectively. The “inhibition (INH)” value in data set [1] amounted to 43%. The IC50 in data set [2] is 1.5 nM.

Regarding `CCNc1nnc(-c2cnc(N3CCN(C4CCN(C(=O)c5ccc(Cl)nc5N)CC4)[C@@H](CC)C3)c(C(C)C)n2)o1`, in data set [1], the “inhibition (INH)” value amounted to 8%. Also, the half-maximal inhibitory concentration (IC50) in data set [2] worked out at 437 nM.

`CCNc1nnc(-c2cnc(N3C[C@H](CC)N(C4CCN(C(=O)c5ccc(Cl)cc5)CC4)C[C@H]3C)c(C)n2)o1`: the AUC was 3.3 uM.hr/ml in data set [4] and 16.6 uM.hr/ml in data set [3]. The “inhibition (INH)” value in data set [1] came out at 25%. This molecule came in with an IC50 in data set [2] of 2.8 nM.

For `CCNc1nnc(-c2cnc(N3CCN(C4CCN(C(=O)c5ccc(Cl)nc5N)CC4)[C@@H](CC)C3)c(C3CC3)n2)o1`, in data set [1], the “inhibition (INH)” value is 14%. This molecule also showed an IC50 in data set [2] of 24.5 nM.

In the case of `CCNc1nnc(-c2cnc(N3CCN(C4CCN(C(=O)c5ccc(Cl)nc5N)CC4)[C@@H](CC)C3)c(C)n2)o1`, the AUC in data set [4] is listed as 0.1 uM.hr/ml; in data set [3] it was 2.6 uM.hr/ml. Also, the “inhibition (INH)” value in data set [1] was determined as 12%. This molecule also displayed an IC50 in data set [2] of 1.2 nM.

On to `CCNc1nnc(-c2cnc(N3CCN(C4CCN(C(=O)c5ccc(Cl)nc5N)CC4)[C@@H](CC)C3)c(CC)n2)o1`, for which the “inhibition (INH)” value in data set [1] is reported as 4%. The molecule further had an IC50 in data set [2] of 3.8 nM.

Turning to `CC[C@H]1CN(c2nc(N)c(-c3nnc(C)o3)nc2Cl)CCN1C1CCN(C(=O)c2ccc(Cl)nc2N)CC1`, the “inhibition (INH)” value in data set [1] is 26%. The molecule also returned an IC50 in data set [2] of 2 nM. Moreover, the AUC in data set [3] stood at 10.2 uM.hr/ml.
